Measured values published in patent publication US20070178523A1, “Novel druggable regions in set domain proteins, and methods of using the same” (Emory University, priority 2002, published 2007).
Entries after “also recorded” stand apart in the source; their conditions may differ.

Legend:
DIM-5 [1] = target: T1, DIM-5 (Neurospora crassa, UniProt Q8X225); test: Methyl transfer (HKMT) activity assay; format: biochemical, N. crassa; parameters: A segment of the wild-type dim-5 ORF, including amino acid residues 17-318, was amplified; GST (N, cleaved yes); made in house; host or cells: E. coli BL21(DE3) Codon plus RIL carrying pXC379 (pGEX2T); conditions: for DIM-5 activity after incubation with metal chelator: incubation of metal chelator with DIM-5 protein
T1 sequence (Q8X225 30-331): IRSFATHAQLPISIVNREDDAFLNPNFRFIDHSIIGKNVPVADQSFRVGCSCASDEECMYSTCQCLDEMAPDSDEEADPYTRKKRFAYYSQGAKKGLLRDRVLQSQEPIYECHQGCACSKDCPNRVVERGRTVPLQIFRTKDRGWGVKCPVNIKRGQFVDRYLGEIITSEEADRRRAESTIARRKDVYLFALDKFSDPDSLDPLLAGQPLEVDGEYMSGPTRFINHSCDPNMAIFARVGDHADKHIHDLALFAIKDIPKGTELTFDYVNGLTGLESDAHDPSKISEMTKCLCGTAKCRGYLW
Procedure: The activity of the DIM-5 was assayed in a 20 μl reaction containing 50 mM glycine (pH 9.8), 2 mM DTT, 40-80 μM unlabelled AdoMet (Sigma), 0.5 μCi [methyl-^3H]AdoMet (78 Ci/mmol, NEN NET155H), 0.25-0.5 μg of DIM-5 protein, and 2-5 μg histones (calf thymus histones Sigma H4524, Roche 223565, or recombinant chicken erythrocyte histones, a gift from Dr. V. Ramakrishnan). The reaction was incubated at room temperature for 10-15 min and methylation was analyzed either by SDS-PAGE and fluorography, or by precipitation with 20% TCA, filtration (Milipore GF/F filter), washing and liquid scintillation counting. Under these conditions, DIM-5 activity was linearly related to reaction time and amount of enzyme and AdoMet and histone were saturating. For some reason, the relatively crude Sigma H4524 histone preparations generally gave 2-4 fold higher incorporation than either the Roche preparations or the recombinant histones.

DIM-5 [2] = target: T1, DIM-5; test: AdoMet-binding assay by UV crosslinking; parameters: A segment of the wild-type dim-5 ORF, including amino acid residues 17-318, was amplified; GST (N, cleaved yes); made in house; host or cells: E. coli BL21(DE3) Codon plus RIL carrying pXC379 (pGEX2T); species or system N. crassa; conditions: incubation of metal chelator with DIM-5 protein
Procedure: Twenty μl of purified DIM-5 protein (2-5 μg) was incubated with 0.5 μCi of [methyl-^3H]AdoMet (78 Ci/mmol, NEN NET155H) overnight at 4° C. Samples were added to a 96-well plate on ice and placed 8 cm from an inverted UV transilluminator (VWR, 302 nm) for 1 hr. The protein was then separated by SDS-PAGE, stained with Coomassie and subjected to fluorography.

DIM-5 [3] = target: T1, DIM-5; conditions: when EDTA completely abolished DIM-5 activity
Procedure: To remove zinc bound to EDTA, the protein was either dialyzed (Exp1) or subjected to gel filtration chromatography (Exp2) against 20 mM glycine (pH 9.8), 5% glycerol, 0.5 mM DTT and 1 mM EDTA.
One sample of untreated and two samples of EDTA treated DIM-5 protein (about 2 ml of 2 mg/ml each) was analyzed for the presence of 20 elements on a Thermo Jarrell-Ash Enviro 36 ICAP analyzer at the Chemical Analysis Laboratory of the University of Georgia at Athens. In order to calculate the molar ratio of Zn to protein, the precise concentration of the untreated DIM-5 protein was determined by amino acid analysis (averaging two independent measurements) performed at the Keck Facilities at Yale University. The extinction coefficient (29,559 M^−1 cm^−1) derived from the amino acid analysis was used to estimate the protein concentration of the EDTA-treated samples.

SMILES | HKMT activity (DIM-5 [1]; DIM-5 incubated with 20 mM EDTA for 2 days) | DIM-5 activity after incubation with metal chelator (DIM-5 [1]) | AdoMet-binding (DIM-5 [2]) | zinc ions retained by the protein (DIM-5 [3]) | inhibition of DIM-5 activity (DIM-5 [1]; 100 mM NaCl)
O=C(O)CN(CCN(CC(=O)O)CC(=O)O)CC(=O)O [EDTA] | no longer detectable | inhibited its activity; also recorded: completely abolished | significantly reduced | ~2.9 zinc ions | –
c1cnc2c(c1)ccc1cccnc12 [phenanthroline, 1,10-phenanthroline] | – | inhibited its activity | significantly reduced | – | –
[Cl-].[Na+] [NaCl] | – | – | – | – | about 95%
